Reference: the NIST ThermoML archive (doi:10.1016/j.fluid.2007.01.001)
Numbers after ± are expanded uncertainties.

How the values were obtained:
[1] = 101 kPa, Liquid; for viscosity: Capillary tube (Ostwald / Ubbelohde) method; for speed of sound: Frequency=2 MHz, Linear variable-path acoustic interferometer; for mass density: Pycnometric method
[2] = xn = mol fraction of the nth substance listed; conditions: 101 kPa, Liquid, x1 = 1; for viscosity: Capillary tube (Ostwald / Ubbelohde) method; for speed of sound: Frequency=2 MHz, Linear variable-path acoustic interferometer; for mass density: Pycnometric method

SMILES	viscosity ([1]; 298.15 K)	speed of sound ([1]; 298.15 K)	mass density ([1]; 298.15 K)	viscosity ([1]; 308.15 K)	speed of sound ([1]; 308.15 K)	mass density ([1]; 308.15 K)	viscosity ([2]; 298.15 K)	speed of sound ([2]; 298.15 K)	mass density ([2]; 298.15 K)	viscosity ([2]; 308.15 K)	speed of sound ([2]; 308.15 K)	mass density ([2]; 308.15 K)
CCCCCC(C)O (configuration not stated) [2-heptanol]	5.088 ± 0.41 mPa·s	1314 ± 3 m/s	813.74 ± 0.69 kg/m3	3.683 ± 0.3 mPa·s	1274 ± 3 m/s	804.88 ± 0.7 kg/m3						
CCCCC(C)O (configuration not stated) [2-hexanol]	4.105 ± 0.33 mPa·s	1290 ± 3 m/s	810.84 ± 0.7 kg/m3	2.92 ± 0.23 mPa·s	1255 ± 3 m/s	801.75 ± 0.71 kg/m3						
CCCCCCC(C)O (configuration not stated) [2-octanol]	6.429 ± 0.52 mPa·s	1328 ± 3 m/s	817.08 ± 0.58 kg/m3	4.365 ± 0.35 mPa·s	1292 ± 3 m/s	809.89 ± 0.6 kg/m3						
Cc1ccccc1 [toluene]	0.554 ± 0.044 mPa·s	1306 ± 3 m/s	862.18 ± 0.73 kg/m3	0.496 ± 0.04 mPa·s	1270 ± 3 m/s	852.79 ± 0.74 kg/m3						
Cc1ccccc1 [toluene] + CCCCC(C)O							0.554 ± 0.044 mPa·s	1306 ± 3 m/s	862.18 ± 0.73 kg/m3	0.496 ± 0.04 mPa·s	1270 ± 3 m/s	852.79 ± 0.74 kg/m3
Cc1ccccc1 [toluene] + CCCCCC(C)O							0.554 ± 0.044 mPa·s	1306 ± 3 m/s	862.18 ± 0.73 kg/m3	0.496 ± 0.04 mPa·s	1270 ± 3 m/s	852.79 ± 0.74 kg/m3
Cc1ccccc1 [toluene] + CCCCCCC(C)O							0.554 ± 0.044 mPa·s	1306 ± 3 m/s	862.18 ± 0.73 kg/m3	0.496 ± 0.04 mPa·s	1270 ± 3 m/s	852.79 ± 0.74 kg/m3
